{"source": "patent US20240156971A1", "about": "“METHODS AND SORTILIN BINDING CONJUGATE COMPOUNDS FOR TARGETING CANCER STEM CELLS” (TRANSFERT PLUS, SOCIÉTÉ EN COMMANDITE, priority 2021, published 2024)", "key": {"ovarian hOCSC xenografts": {"system": "ovarian hOCSC xenografts", "experiment": "hOCSC xenografts treated with single agents or combined with carboplatin", "type": "in vivo, mice", "conditions": "for inhibition of tumor growth, single agent: docetaxel 10 mg/kg, TH1902 23 mg/kg, paclitaxel 10 mg/kg, carboplatin 40 mg/kg, day 18", "protocol": "Mice bearing ovarian hOCSC xenografts were treated with vehicle, docetaxel, paclitaxel, TH1902 or carboplatin, and other groups of mice were administered carboplatin in combination with either docetaxel, paclitaxel or TH1902. To minimize the risk of side effects resulting from combining treatments, the dosages used for each drug were reduced to the following: docetaxel 10 mg/kg; TH1902 23 mg/kg (equivalent to the docetaxel dosage); paclitaxel 10 mg/kg; carboplatin 40 mg/kg (unchanged)."}, "hBCSCs [1]": {"system": "hBCSCs", "experiment": "Confocal microscopy of hBCSCs (DAPI, anti-α-tubulin)", "type": "cell-based, human", "conditions": "4 μM docetaxel or 2 μM TH1902, 48 hours post-treatment; for appearance of fragmented nuclei: DAPI", "protocol": "Effects of Docetaxel and TH1902 on Tubulin Polymerization. hBCSCs were grown to 80% confluence on pre-coated 18 mm microscope cover slips (Celprogen, #E36102-29-CS18), rinsed with PBS and exposed to serum-free culture medium containing vehicle (DMSO), 4 μM docetaxel or 2 μM TH1902 at 37° C. Following incubation for 2 hours the cells were rinsed with complete culture medium and incubated in fresh complete medium for 48 hours. Cells were then washed with PHEM buffer (60 mM Pipes, 25 mM HEPES, 10 mM EGTA and 2 mM MgCl2, pH 6.9) and fixed for 15 minutes with 4% paraformaldehyde, then permeabilized with 1% Triton™ X-100 in PHEM buffer for 5 minutes and washed again with PHEM buffer. The cells were blocked in PBS (2.6 mM KCl, 1.4 mM KH2PO4, 136.9 mM NaCl and 6.5 mM Na2HPO4·7H2O; pH 7.2) containing 10% normal goat serum and 0.05% Triton™ and then incubated for 1 hour with 1:2000 anti-α-Tubulin primary monoclonal antibody (clone B-5-1-2, Sigma-Aldrich; #T5168) diluted in washing buffer (PBS containing 5% normal goat serum and 0.025% Triton). Cells were washed with washing buffer and incubated for 1 hour with Alexa Fluor™ 488-conjugated goat anti-mouse secondary antibody (1:1000; Invitrogen; #A-11001), washed with diluted blocking buffer, stained with DAPI ([…] in PBS, Invitrogen; #D1306) for 3 minutes, washed again in washing blocking buffer and mounted onto slides using Prolong™ Gold antifade reagent (Invitrogen, P36934). Cell images were finally digitalized by confocal microscopy (Nikon A1) and analyzed using NIH ImageJ™ Version 1.4.21 software. The excitation and emission wavelengths used for Alexa Fluor™ 488 were 488 nm and 525 nm, respectively; the excitation and emission wavelengths used for DAPI were 404 nm and 450 nm, respectively."}, "hOvCSC xenografts": {"system": "hOvCSC xenografts", "experiment": "Growth of hOvCSC xenografts in mice", "type": "in vivo", "conditions": "weekly i.v.; TH1902 at doses equivalent to 1, 1.25 or 1.5 the MTD of docetaxel; docetaxel 15 mg/kg (MTD)", "excerpt": "In vivo Assessment of Docetaxel and TH1902 Anti-Tumor Efficacy. Tumor xenografts were established by subcutaneous inoculation of 10^3 hBCSC cells, hOvCSC and hPCSC resuspended in […] of HBSS containing 50% Matrigel™, into the right flank of NCG triple immunodeficient female mice (Charles River, Saint-Constant QC) under light isoflurane anesthesia. Three days following implantation of either hBCSC or hOvCSCS, mice commenced receiving weekly treatment by intravenous bolus injections of vehicle (10% polysorbate-80, 5% dextrose, 0.04% formic acid pH 4.3), docetaxel (15 mg/kg (the MTD for this agent) or 3.75 mg/kg (¼ MTD for this agent), dissolved in 5% dextrose, 3.3% ethanol, […]) dissolved in vehicle. […] Tumor growth was measured using two-dimensional measurements taken with an electronic caliper, and tumor volume was calculated according to the following formula: tumor volume (mm^3)=π/6×length×width^2. Animal weights were measured three times per week with a precision of 10 mg."}, "hBCSCs [2]": {"system": "hBCSCs", "experiment": "Cell cycle analysis (G2/M) of hBCSCs with or without P-gp inhibitors", "type": "cell-based, human", "protocol": "(§1) Cell Cycle Analysis Following Treatment of hBCSC by Test Articles. hBCSCs (2.8×10^5 cells/well) and MDA-MB-231/luc cells (2.3×10^5 cells/well) were seeded in 6-well plates one day prior to treatment. To test the effects of Docetaxel and TH1902 on cell cycle phases, hBCSCs and MDA-MB-231/luc cells were treated for 2 hours in serum-free media with vehicle (DMSO), 4 μM docetaxel or 2 μM TH1902 (equimolar of docetaxel), rinsed with complete media and incubated in fresh complete media for 22 and 48 hours. For the experiments with the P-gp inhibitors, hBCSCs were first pre-treated for 30 minutes in serum-free media with vehicle (DMSO), or 10 μM cyclosporine A or PSC-833 (P-gp inhibitors). Next, cells were treated for 2 hours with 4 μM docetaxel or 2 μM TH1902 in the continued presence or absence of the P-gp inhibitors before being rinsed and incubated in fresh complete media in the continued presence or absence of the P-gp inhibitors. Cells were then incubated for 22 and 48 hours. In both assays, following the incubation, cells were detached with trypsin, fixed with ice-cold 70% EtOH and kept overnight at 4° C. Cells were washed once with PBS, after which they were stained for 30 minutes at room temperature with FxCycle™ PI/RNase Staining Solution (Thermo Scientific, Waltham, MA; #F10797). Cells were finally subjected to cell cycle analysis using a BD Accuri™ C6 flow cytometer."}, "hBCSCs [3]": {"system": "hBCSCs", "experiment": "Cell cycle analysis (G2/M) of hBCSCs", "type": "cell-based, human", "conditions": "2 h with 4 μM docetaxel or 2 μM TH1902, then 22 h or 48 h", "protocol": "as §1"}}, "note": "Square brackets hold non-standard residues; d marks the D form. Ends that are not written are not given here. Nle = CCCC[C@H](N)C(=O)O"}
{"molecule": "Acetyl-GVRAK(docetaxel)AGVRN(Nle)FK(docetaxel)SESY (Ac-GVRAK(docetaxel)AGVRN[Nle]FK(docetaxel)SESY) [TH1902]", "values": [{"measurement": "inhibition of tumor growth, single agent", "setting": "ovarian hOCSC xenografts", "result": "much greater than that of either taxanes"}, {"measurement": "inhibition of tumor growth, combined with carboplatin", "setting": "ovarian hOCSC xenografts; plus carboplatin 40 mg/kg intraperitoneal, vs the agent alone", "result": "slightly increased"}, {"measurement": "cell morphology change versus vehicle-treated cells", "setting": "hBCSCs [1]", "result": "visible morphology change"}, {"measurement": "enlargement of cells and re-organization of the microtubules (tubulin labelling)", "setting": "hBCSCs [1]", "result": "more evident"}, {"measurement": "appearance of fragmented nuclei", "setting": "hBCSCs [1]", "result": "fragmented nuclei in many of the cells"}, {"measurement": "growth of tumors originating from ovarian CSCs", "setting": "hOvCSC xenografts", "result": "significant inhibition of the growth of tumors"}, {"measurement": "G2/M cell cycle arrest in the presence of CsA", "setting": "hBCSCs [2]; 10 μM CsA, 4 μM docetaxel or 2 μM TH1902", "result": "no effect"}, {"measurement": "G2/M cell cycle arrest in the presence of PCC-831", "setting": "hBCSCs [2]; 10 μM inhibitor, 4 μM docetaxel or 2 μM TH1902", "result": "no effect"}, {"measurement": "proportion of cells in G2/M phase", "setting": "hBCSCs [2]; no efflux inhibitor, 4 μM docetaxel or 2 μM TH1902, FIG. 6C-D", "result": "strong increase in the proportion of cells in G2/M phase"}, {"measurement": "G2/M cell cycle arrest", "setting": "hBCSCs [3]", "result": "significant increase in G2/M cell cycle arrest"}]}
{"molecule": "CC(=O)O[C@@]12CO[C@@H]1C[C@H](O)[C@@]1(C)C(=O)[C@H](O)C3=C(C)[C@@H](OC(=O)[C@H](O)[C@@H](NC(=O)OC(C)(C)C)c4ccccc4)C[C@@](O)([C@@H](OC(=O)c4ccccc4)[C@H]21)C3(C)C", "note": "[docetaxel, reference compound]", "values": [{"measurement": "inhibition of tumor growth, single agent", "setting": "ovarian hOCSC xenografts", "result": "clearly inferior to that of TH1902"}, {"measurement": "cell morphology change versus vehicle-treated cells", "setting": "hBCSCs [1]", "result": "visible morphology change"}, {"measurement": "enlargement of cells and re-organization of the microtubules (tubulin labelling)", "setting": "hBCSCs [1]", "result": "present in some"}, {"measurement": "appearance of fragmented nuclei", "setting": "hBCSCs [1]", "result": "not seen"}, {"measurement": "growth of tumors originating from ovarian CSCs", "setting": "hOvCSC xenografts", "result": "no significant reduction of tumor growth"}, {"measurement": "G2/M cell cycle arrest", "setting": "hBCSCs [3]", "result": "not"}]}
